What follows are molecules tested against T1, CD80-CD28 interaction (Homo sapiens, UniProt P33681) (assay: Homogenous Time Resolved Fluorescence (HTRF) assay, cell free). Conditions: cell free HTRF assay; concentration series 100 μM-1.7 nM; 4 hours at room temperature; read-out: Activity (EC50 in the HTRF assay).
T1 sequence (P33681 35-242 limits assumed): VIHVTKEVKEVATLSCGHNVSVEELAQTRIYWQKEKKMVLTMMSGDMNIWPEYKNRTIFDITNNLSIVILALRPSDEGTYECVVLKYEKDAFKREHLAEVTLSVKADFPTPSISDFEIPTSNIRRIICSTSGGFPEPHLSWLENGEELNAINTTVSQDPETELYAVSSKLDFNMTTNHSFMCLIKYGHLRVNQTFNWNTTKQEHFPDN
Format: binding
In short: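 In pH7.8 Tris-HCl/NaCl buffer with 0.1% BSA, a 100 μM-1.7 nM compound series was incubated for 4 h at room temperature with CD28 and CD80 fusions carrying europium and APC via linker antibodies. Time-resolved signals at 665 and 615 nm were read after 340 nm excitation; a C215 Fab swap defined background. EC50 given as banded classes.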

SMILES	EC50
O=C(NCC1CCCCC1)c1ccc(-n2[nH]c3c(nnc4ccccc43)c2=O)cc1 [Example 244]	1 to 10 µM
CCN1CCCC1CNC(=O)Nc1ccc(-n2[nH]c3c(nnc4ccccc43)c2=O)cc1 (stereo not drawn) [Example 310]	< 1 µM
O=C(NC1CN2CCC1CC2)c1ccc(-n2[nH]c3c(nnc4ccccc43)c2=O)cc1 (stereo not drawn) [Example 278]	< 1 µM
CCN(CC)CCNC(=O)c1ccc(-n2[nH]c3c(nnc4ccc(F)cc43)c2=O)cc1 [Example 326]	< 1 µM
CCOC(=O)N1CCC(NC(=O)Nc2ccc(-n3[nH]c4c(nnc5ccccc54)c3=O)cc2)CC1 [Example 303]	> 10 µM
O=C(NCC1CCNCC1)c1ccc(-n2[nH]c3c(nnc4ccccc43)c2=O)cc1 [Example 256]	1 to 10 µM
O=C(NCCc1cccc(Cl)c1)c1ccc(-n2[nH]c3c(nnc4c(F)cccc43)c2=O)cc1 [Example 364]	1 to 10 µM
Cc1ccc2nnc3c(=O)n(-c4ccc(C(=O)NCCCN(C)C)cc4)[nH]c3c2c1 [Example 406]	< 1 µM
O=C(NCCCN1CCCC1)Nc1ccc(-n2[nH]c3c(nnc4ccccc43)c2=O)cc1 [Example 229]	< 1 µM
O=C(NCCCCN1CCCC1)c1ccc(-n2[nH]c3c(nnc4c(Cl)cccc43)c2=O)cc1 [Example 413]	< 1 µM
CCCCNCCNC(=O)c1ccc(-n2[nH]c3c(nnc4c(F)cccc43)c2=O)cc1 [Example 344]	< 1 µM
CC1CCCCN1CCCNC(=O)c1ccc(-n2[nH]c3c(nnc4c(F)cccc43)c2=O)cc1 (stereo not drawn) [Example 358]	< 1 µM
CCN(CC)CCCNC(=O)c1ccc(-n2[nH]c3c(nnc4ccc(F)cc43)c2=O)cc1 [Example 330]	< 1 µM
NC1CCC(NC(=O)c2ccc(-n3[nH]c4c(nnc5c(F)cccc54)c3=O)cc2)CC1 (stereo not drawn) [Example 410]	< 1 µM
O=C(NCCCCN1CCCC1)c1ccc(-n2[nH]c3c(nnc4cccc(F)c43)c2=O)cc1 [Example 388]	< 1 µM
O=C(NCCc1cccc(Br)c1)c1ccc(-n2[nH]c3c(nnc4c(F)cccc43)c2=O)cc1 [Example 365]	> 10 µM
CC(C)(C)c1ccc(CN2CCC(NC(=O)c3ccc(-n4[nH]c5c(nnc6c(F)cccc65)c4=O)cc3)CC2)cc1 [Example 378]	< 1 µM
CC12CCC(C1)C(C)(C)C2NC(=O)c1ccc(-n2[nH]c3c(nnc4ccccc43)c2=O)cc1 (stereo not drawn) [Example 318]	< 1 µM
O=C(c1ccc(-n2[nH]c3c(nnc4cccc(F)c43)c2=O)cc1)N1CCC(N2CCCCC2)CC1 [Example 402]	1 to 10 µM
O=C(NCCCNC1CCCCC1)c1ccc(-n2[nH]c3c(nnc4c(Cl)cccc43)c2=O)cc1 [Example 412]	< 1 µM
O=C(NCCCNC1CCCCC1)c1ccc(-n2[nH]c3c(nnc4cccc(F)c43)c2=O)cc1 [Example 389]	< 1 µM

The next lines start with the values.

EC50	SMILES
> 10 µM	O=C(NCCc1ccccc1)c1ccc(-n2[nH]c3c(nnc4ccccc43)c2=O)cc1 [Example 270]
1 to 10 µM	O=C(NC1CCC1)c1ccc(-n2[nH]c3c(nnc4ccccc43)c2=O)cc1 [Example 239]
< 1 µM	C=CCNC(=O)c1ccc(-n2[nH]c3c(nnc4ccccc43)c2=O)cc1 [Example 246]
< 1 µM	O=C(NCCCCNC(=O)c1ccc(-n2[nH]c3c(nnc4ccccc43)c2=O)cc1)OCc1ccccc1 [Example 266]
> 10 µM	O=C(NCc1ccc([N+](=O)[O-])cc1)Nc1ccc(-n2[nH]c3c(nnc4ccccc43)c2=O)cc1 [Example 296]
> 10 µM	CCCCCNC(=O)c1ccc(-n2[nH]c3c(nnc4ccccc43)c2=O)cc1 [Example 251]
< 1 µM	CCCCC(C)NC(=O)c1ccc(-n2[nH]c3c(nnc4ccccc43)c2=O)cc1 (stereo not drawn) [Example 322]
> 10 µM	COc1ccc(CNC(=O)c2ccc(-n3[nH]c4c(nnc5ccccc54)c3=O)cc2)c(OC)c1 [Example 236]
< 1 µM	O=C(NCc1cccc(F)c1)c1ccc(-n2[nH]c3c(nnc4ccccc43)c2=O)cc1 [Example 250]

Same assay, conditions: cell-free HTRF, compound concentration series 100 μM-1.7 nM, 4 hours at room temperature; read-out: Activity (EC50 in the HTRF assay)

SMILES	EC50
O=C(NCCc1ccc([N+](=O)[O-])cc1)Nc1ccc(-n2[nH]c3c(nnc4ccccc43)c2=O)cc1 [Example 155]	1 to 10 µM
CCN(CC)CCCNC(=O)c1ccc(-n2[nH]c3c(nnc4ccccc43)c2=O)cc1 [Example 176]	< 1 µM
O=C(NCCN1CCOCC1)c1ccc(-n2[nH]c3c(nnc4ccccc43)c2=O)cc1 [Example 12]	< 1 µM
O=C(NCCCN1CCCC1)c1ccc(-n2[nH]c3c(nnc4ccccc43)c2=O)cc1 [Example 79]	< 1 µM
CC(C)CC(C)NC(=O)Nc1ccc(-n2[nH]c3c(nnc4ccccc43)c2=O)cc1 (stereo not drawn) [Example 124]	> 10 µM
O=C(NCC1CCCCCC1)c1ccc(-n2[nH]c3c(nnc4ccccc43)c2=O)cc1 [Example 87]	> 10 µM
CC(C)NCCNC(=O)Nc1ccc(-n2[nH]c3c(nnc4ccccc43)c2=O)cc1 [Example 141]	< 1 µM
CCCCOC(=O)CNC(=O)Nc1ccc(-n2[nH]c3c(nnc4ccccc43)c2=O)cc1 [Example 215]	> 10 µM
CN1CCC(NC(=O)Nc2ccc(-n3[nH]c4c(nnc5ccccc54)c3=O)cc2)CC1 [Example 183]	< 1 µM
CC1CCCCN1CCCNC(=O)Nc1ccc(-n2[nH]c3c(nnc4ccccc43)c2=O)cc1 (stereo not drawn) [Example 186]	< 1 µM
CN1CCN(CCCNC(=O)Nc2ccc(-n3[nH]c4c(nnc5ccccc54)c3=O)cc2)CC1 [Example 129]	< 1 µM
CC(CCCC(C)(C)O)NC(=O)c1ccc(-n2[nH]c3c(nnc4ccccc43)c2=O)cc1 (stereo not drawn) [Example 99]	1 to 10 µM

The remaining lines, values ahead:

EC50	SMILES
< 1 µM	C=CCNC(=O)Nc1ccc(-n2[nH]c3c(nnc4ccccc43)c2=O)cc1 [Example 131]
1 to 10 µM	O=C(NC1CCCCC1)c1ccc(-n2[nH]c3c(nnc4ccccc43)c2=O)cc1 [Example 57]
1 to 10 µM	NS(=O)(=O)c1ccc(CCNC(=O)c2ccc(-n3[nH]c4c(nnc5ccccc54)c3=O)cc2)cc1 [Example 114]
1 to 10 µM	CCCCCC(C)NC(=O)c1ccc(-n2[nH]c3c(nnc4ccccc43)c2=O)cc1 (stereo not drawn) [Example 43]
> 10 µM	O=C(NCCNc1cccc2ccccc12)Nc1ccc(-n2[nH]c3c(nnc4ccccc43)c2=O)cc1 [Example 152]
< 1 µM	CCSCCNC(=O)c1ccc(-n2[nH]c3c(nnc4ccccc43)c2=O)cc1 [Example 77]
1 to 10 µM	COCCCNC(=O)Nc1ccc(-n2[nH]c3c(nnc4ccccc43)c2=O)cc1 [Example 133]
1 to 10 µM	O=C(NCCc1cccnc1)Nc1ccc(-n2[nH]c3c(nnc4ccccc43)c2=O)cc1 [Example 217]
> 10 µM	CCOC(=O)CCNC(=O)c1ccc(-n2[nH]c3c(nnc4ccccc43)c2=O)cc1 [Example 116]
> 10 µM	O=C(NCCSCc1ccccc1)Nc1ccc(-n2[nH]c3c(nnc4ccccc43)c2=O)cc1 [Example 200]
1 to 10 µM	O=C(NCc1cccc([N+](=O)[O-])c1)c1ccc(-n2[nH]c3c(nnc4ccccc43)c2=O)cc1 [Example 39]
< 1 µM	O=C(NCCNc1ccccc1)c1ccc(-n2[nH]c3c(nnc4ccccc43)c2=O)cc1 [Example 47]
1 to 10 µM	O=C(NCCc1ccccn1)c1ccc(-n2[nH]c3c(nnc4ccccc43)c2=O)cc1 [Example 76]
1 to 10 µM	O=C(Nc1ccccc1)c1ccc(-n2[nH]c3c(nnc4ccccc43)c2=O)cc1 [Example 15]
1 to 10 µM	O=C(NCCc1cnc[nH]1)c1ccc(-n2[nH]c3c(nnc4ccccc43)c2=O)cc1 [Example 35]
< 1 µM	CCN(CC)CCNC(=O)c1ccc(-n2[nH]c3c(nnc4ccccc43)c2=O)cc1 [Example 60]
< 1 µM	NCCCCNC(=O)c1ccc(-n2[nH]c3c(nnc4ccccc43)c2=O)cc1 [Example 54]

Same assay, conditions: cell-free HTRF, concentration series 100 μM-1.7 nM, 4 hours at room temperature; read-out: Activity (EC50 in the HTRF assay)

EC50	SMILES
< 1 µM	CC1CCCCN1CCCCNC(=O)c1ccc(-n2[nH]c3c(nnc4c(F)cccc43)c2=O)cc1 (stereo not drawn) [Example 454]
1 to 10 µM	CCCN(CC)C(=O)c1ccc(-n2[nH]c3c(nnc4c(F)cccc43)c2=O)cc1 [Example 452]
< 1 µM	CCNC(=O)c1ccc(-n2[nH]c3c(nnc4c(F)cccc43)c2=O)cc1 [Example 450]
< 1 µM	O=C(NC(CO)Cc1ccccc1)c1ccc(-n2[nH]c3c(nnc4c(F)cccc43)c2=O)cc1 (stereo not drawn) [Example 514]
< 1 µM	NCCCNC(=O)c1ccc(-n2[nH]c3c(nnc4c(F)cccc43)c2=O)cc1 [Example 445]
< 1 µM	NC1CCCC(NC(=O)c2ccc(-n3[nH]c4c(nnc5c(F)cccc54)c3=O)cc2)C1 (stereo not drawn) [Example 499]
< 1 µM	O=C(c1ccc(-n2[nH]c3c(nnc4c(F)cccc43)c2=O)cc1)N1CCCNCC1 [Example 490]
< 1 µM	O=C(NC1CCN(CCCCF)CC1)c1ccc(-n2[nH]c3c(nnc4c(F)cccc43)c2=O)cc1 [Example 471]
< 1 µM	CC(N)C(C)CNC(=O)c1ccc(-n2[nH]c3c(nnc4c(F)cccc43)c2=O)cc1 (stereo not drawn) [Example 443]
< 1 µM	CCC(CO)NC(=O)c1ccc(-n2[nH]c3c(nnc4c(F)cccc43)c2=O)cc1 (stereo not drawn) [Example 509]
< 1 µM	CN1C(C)(C)CC(NC(=O)c2ccc(-n3[nH]c4c(nnc5ccc(Cl)cc54)c3=O)cc2)CC1(C)C [Example 447]
< 1 µM	CC(CO)(CO)NC(=O)c1ccc(-n2[nH]c3c(nnc4c(F)cccc43)c2=O)cc1 [Example 517]
1 to 10 µM	O=C(NCC1CCCCCCC1O)c1ccc(-n2[nH]c3c(nnc4c(F)cccc43)c2=O)cc1 (stereo not drawn) [Example 506]
